Several values for one entry are separate records, joined by “and”; a condition that tells them apart may be missing. Identical values can stand only once. Like-named read-outs stand apart in the source and are kept apart here.
What was measured:
[1] = test system: bird's-eye speedwell (VERPE, Veronica persica); test: Greenhouse postemergence herbicidal effect; assay type: in vivo
Method in brief: (§1)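 Injury was rated visually after 20-22 d on a 0 (none) to 100% (complete kill) scale relative to solvent-sprayed controls, with sub-irrigation to avoid wash-off. Rates were given in g ae/ha or g ai/ha depending on component.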

[2] = test system: cleavers (GALAP, Galium aparine); test: Greenhouse postemergence herbicidal effect; assay type: in vivo
Method in brief: as §1

[3] = test system: corn poppy (PAPRH, Papaver rhoeas); test: Greenhouse postemergence herbicidal effect; assay type: in vivo
Method in brief: as §1

[4] = test system: cornflower (CENCY, Cyanus segetum); test: Greenhouse postemergence herbicidal effect; assay type: in vivo
Method in brief: as §1

[5] = test system: false chamomile (MATIN, Matricaria inodora); test: Greenhouse postemergence herbicidal effect; assay type: in vivo
Method in brief: as §1

[6] = test system: field chamomile (ANTAR, Anthemis arvensis); test: Greenhouse postemergence herbicidal effect; assay type: in vivo
Method in brief: as §1

[7] = test system: field violet (VIOAR, Viola arvensis); test: Greenhouse postemergence herbicidal effect; assay type: in vivo
Method in brief: as §1

[8] = test system: wild mustard (SINAR, Sinapis arvensis); test: Greenhouse postemergence herbicidal effect; assay type: in vivo
Method in brief: as §1

[9] = test system: common lambsquarters (CHEAL, Chenopodium album L.); test: Greenhouse postemergence herbicidal effect; assay type: in vivo
[10] = test system: winter wheat (TRZAW); test: Greenhouse postemergence crop phytotoxicity; assay type: in vivo, Triticum aestivum
Text: Seeds of the desired test plant species were planted in a 90:10% v/v (volume/volume) mixture of PRO-MIX® BX (Premier Tech Horticulture, Quakertown, PA, USA) and PROFILE® GREENS GRADE™ (Profile Products LLC, Buffalo Grove, IL, USA) planting mixture, which typically has a pH of 5.2 to 6.2 and an organic matter content of at least 50 percent, in plastic pots with a surface area of 103.2 square centimeters (cm^2). In some aspects, to ensure good germination and healthy plants, a fungicide treatment and/or other chemical or physical treatment was applied. The plants were grown for 7-36 days (d) in a greenhouse with an approximate 14-hour (h) photo-period which was maintained at about 23° C. during the day and 22° C. during the night. Nutrients and water were added on a regular basis and supplemental lighting was provided with overhead metal halide 1000-Watt lamps as necessary. The plants were employed for testing when they reached the second or third true leaf stage.
Emulsifiable concentrates of each of each pyridine carboxylate herbicide (Compound A or Compound B) were prepared at 100 grams acid equivalent per liter (g ae/L). The emulsifiable concentrates also included a safener, cloquintocet-mexyl, at 120 grams active ingredient per liter (g ai/L), unless otherwise noted below. An aliquot of each emulsifiable concentrate was placed in a 25 mL glass vial and diluted with an aqueous mixture of 1.25% (v/v) ACTIROB® B esterified rapeseed oil (Bayer Crop Science, Research Triangle Park, NC, USA) or MSO® Concentrate with LECI-TECH® methylated soybean oil (Loveland Products, Loveland, CO, USA) to obtain concentrated stock solutions at the highest application rate for each herbicide, based upon a 12 milliliter (mL) application volume at a rate of 187 liters per hectare (L/ha). The concentrated stock solutions were further diluted with an aqueous mixture of 1.25% v/v ACTIROB® B or MSO® Concentrate with LECI-TECH® to obtain stock solutions at reduced application rates for each herbicide. Spray solutions of the herbicide combinations (Compound A or Compound B plus ALS herbicide) were prepared by adding weighed amounts or aliquots of the ALS herbicides to the stock solutions of Compound A or Compound B to form 12-mL spray solutions in two- or three-way combinations. […]
The treated plants and control plants were placed in a greenhouse as described above and watered by sub-irrigation to prevent wash-off of the test compounds. After 20-22 d, the condition of the test plants as compared with that of the control plants was determined visually and scored on a scale of 0 to 100 percent where 0 corresponds to no injury and 100 corresponds to complete kill.

[11] = test system: spring barley (HORVS); assay type: in vivo, Hordeum vulgare
Method in brief: as §1

[12] = test system: turnip (BRSRR, Brassica rapa); test: Greenhouse postemergence herbicidal effect; assay type: in vivo
Method in brief: as §1

[13] = Compound A 10 g/ha (Examples 62-63)
[14] = Compound A 10 g/ha, safener mefenpyr-diethyl

`N#CCOC(=O)c1nc(-c2ccc3cc[nH]c3c2F)c(F)c(N)c1Cl` [Compound A, cyanomethyl 4-amino-3-chloro-5-fluoro-6-(7-fluoro-1H-indol-6-yl)pyridine-2-carboxylate] was tested, and the “% visual injury” value ([1]; Compound A 10 g/ha) was 93%, the “% visual injury” value ([1]; Compound A 15 g/ha) was 95% and the “% visual injury” value ([2]; Compound A 10 g/ha) was 25%. For the same molecule, the “% visual injury” value ([2]; Compound A 15 g/ha) was 35%, the “% visual injury” value ([3]; Compound A 10 g/ha) was 100% and the “% visual injury” value ([3]; Compound A 15 g/ha) was 100%. For the same molecule, the “% visual injury” value ([4]; Compound A 10 g/ha) was 93%, the “% visual injury” value ([4]; Compound A 15 g/ha) was 95% and the “% visual injury” value ([5]; Compound A 10 g/ha) was 100%. For the same molecule, the “% visual injury” value ([5]; Compound A 15 g/ha) was 100%, the “% visual injury” value ([6]; Compound A 10 g/ha) was 90% and the “% visual injury” value ([6]; Compound A 15 g/ha) was 95%. For the same molecule, the “% visual injury” value ([7]; Compound A 10 g/ha) was 5%, the “% visual injury” value ([7]; Compound A 15 g/ha) was 5% and the “% visual injury, Obs” value ([8]; 10 g/ha) was 90% and 92% and 88%. For the same molecule, the “% visual injury” value ([8]; Compound A 10 g/ha) was 95% and 90% and 88% and 93%, the “% visual injury Obs” value ([8]; Compound A 10 g/ha) was 93% and 92% and 88% and the “% visual injury, Obs” value ([8]; Compound A 10 g/ha) was 100%. For the same molecule, the “SINAR % visual injury Obs” value [8, 13] was 100%, the “% visual injury” value ([8]; Compound A 15 g/ha) was 97% and 93% and the “% visual injury Obs” value ([8]; Compound A 15 g/ha) was 93%. For the same molecule, the “% visual injury, Obs” value ([8]; SINAR, Compound A 10 g/ha) was 93%, the “Obs % visual injury” value ([8]; SINAR, Compound A 10 g/ha) was 93% and 88% and 100% and the “Obs % visual injury” value ([8]; SINAR, Compound A 10 g/ha (Table 65)) was 100%. For the same molecule, the “Obs % visual injury” value ([8]; SINAR, Compound A 10 g/ha (Table 66)) was 88%, the “% visual injury, Obs” value ([8]; SINAR, Compound A 15 g/ha) was 93% and the “Obs % visual injury” value ([8]; SINAR, Compound A 15 g/ha) was 93%. For the same molecule, the “% visual injury, Obs” value ([9]; 10 g/ha) was 83% and 90% and 78%, the “% visual injury, Obs” value ([9]; CHEAL, Compound A 10 g/ha) was 78% and 83% and the “Obs % visual injury” value ([9]; CHEAL, Compound A 10 g/ha) was 78% and 80% and 88%. For the same molecule, the “Obs % visual injury” value ([9]; CHEAL, Compound A 10 g/ha (Table 65)) was 88%, the “Obs % visual injury” value ([9]; CHEAL, Compound A 10 g/ha (Table 66)) was 78% and the “Obs % visual injury” value ([9]; CHEAL, Compound A 10 g/ha (Table 67)) was 78%. For the same molecule, the “% visual injury, Obs” value ([9]; CHEAL, Compound A 15 g/ha) was 85%, the “Obs % visual injury” value ([9]; CHEAL, Compound A 15 g/ha) was 85% and the “Obs % visual injury” value ([9]; CHEAL, Compound A 15 g/ha (Table 67)) was 83%. For the same molecule, the “% visual injury” value ([9]; Compound A 10 g/ha) was 93% and 78%, the “% visual injury Obs” value ([9]; Compound A 10 g/ha) was 78% and 83% and 80% and the “% visual injury, Obs” value ([9]; Compound A 10 g/ha) was 88%. For the same molecule, the “CHEAL % visual injury Obs” value [9, 13] was 88%, the “% visual injury, Obs” value [9, 14] was 100% and the “CHEAL % visual injury Obs” value [9, 14] was 100%. The “% visual injury” value ([9]; Compound A 15 g/ha) was 85%, the “% visual injury Obs” value ([9]; Compound A 15 g/ha) was 85% and the “% visual injury” value ([10]; Compound A 10 g/ha) was 0%. The “% visual injury” value ([10]; Compound A 15 g/ha) was 0%, the “% visual injury, Obs” value ([11]; 10 g/ha) was 0% and the “% visual injury” value ([11]; Compound A 10 g/ha) was 0%. The “% visual injury Obs” value ([11]; Compound A 10 g/ha) was 0%, the “% visual injury, Obs” value ([11]; Compound A 10 g/ha) was 0% and the “HORVS % visual injury Obs” value [11, 13] was 0%. For the same molecule, the “% visual injury” value ([11]; Compound A 15 g/ha) was 0%, the “% visual injury Obs” value ([11]; Compound A 15 g/ha) was 0% and the “% visual injury, Obs” value ([11]; HORVS, Compound A 10 g/ha) was 0%. The “Obs % visual injury” value ([11]; HORVS, Compound A 10 g/ha) was 0%, the “Obs % visual injury” value ([11]; HORVS, Compound A 10 g/ha (Table 65)) was 0% and the “Obs % visual injury” value ([11]; HORVS, Compound A 10 g/ha (Table 66)) was 0%. For the same molecule, the “Obs % visual injury” value ([11]; HORVS, Compound A 10 g/ha (Table 67)) was 5%, the “% visual injury, Obs” value ([11]; HORVS, Compound A 15 g/ha) was 0% and the “Obs % visual injury” value ([11]; HORVS, Compound A 15 g/ha) was 0%. For the same molecule, the “Obs % visual injury” value ([11]; HORVS, Compound A 15 g/ha (Table 67)) was 3%.
With `C#CCOC(=O)c1nc(-c2ccc3cc[nH]c3c2F)c(F)c(N)c1Cl` [Compound B, propargyl 4-amino-3-chloro-5-fluoro-6-(7-fluoro-1H-indol-6-yl)pyridine-2-carboxylate] the “Obs % visual injury” value ([12]; Compound B 10 g/ha) was 85%, the “% visual injury, Obs” value ([9]; 10 g/ha) was 93% and the “Obs % visual injury” value ([9]; CHEAL, Compound B 5 g/ha) was 96%. For the same molecule, the “Obs % visual injury” value ([9]; CHEAL, Compound B 10 g/ha) was 94% and 96% and the “Obs % visual injury” value ([11]; HORVS, Compound B 10 g/ha) was 0%.
In the case of `COc1ncc(F)c2nc(S(=O)(=O)Nc3c(F)cccc3F)nn12` [Florasulam, florasulam], the “% visual injury” value ([1]; Florasulam 5 g/ha) is reported as 10%, the “% visual injury” value ([2]; Florasulam 5 g/ha) is reported as 95% and the “% visual injury” value ([3]; Florasulam 5 g/ha) is reported as 97%. For the same molecule, the “% visual injury” value ([4]; Florasulam 5 g/ha) was 70%, the “% visual injury” value ([5]; Florasulam 5 g/ha) was 100% and the “% visual injury” value ([6]; Florasulam 5 g/ha) was 70%. The “% visual injury” value ([7]; Florasulam 5 g/ha) was 10%, the “Obs % visual injury” value ([12]; Florasulam 5 g/ha) was 95% and the “% visual injury Obs” value ([8]; Florasulam 3.75 g/ha) was 85%. The “% visual injury” value ([8]; Florasulam 5 g/ha) was 95%, the “% visual injury Obs” value ([9]; Florasulam 3.75 g/ha) was 0% and the “% visual injury” value ([10]; Florasulam 5 g/ha) was 0%. The “% visual injury Obs” value ([11]; Florasulam 3.75 g/ha) was 0% and the “% visual injury” value ([11]; Florasulam 5 g/ha) was 0%.

Reference: patent US12285012B2, “Compositions comprising pyridine carboxylate herbicides with acetolactate synthase (ALS) inhibitor herbicides” (Corteva Agriscience LLC, priority 2018, dated 2025)
